Assay results from ChEMBL document CHEMBL1130242, “3 Beta-(4-ethyl-3-iodophenyl)nortropane-2 beta-carboxylic acid methyl ester as a high-affinity selective ligand for the serotonin transporter” (J Med Chem, 1997).

Key:
[1] = target: Sodium-dependent dopamine transporter (Rattus norvegicus, UniProt P23977); assay: In vitro inhibitory activity against radioligand [3H]-[…] binding to dopamine transporter (DAT) in rat striatal tissue; assay type: tissue-based, Striatum
[2] = target: Norepinephrine transporter (Rattus norvegicus, UniProt Q9WTR4); assay: In vitro inhibitory activity against radioligand [3H]-[…] binding to norepinephrine transporter (NET) in rat cortical tissue
Sequence of Norepinephrine transporter (Q9WTR4 whole entry): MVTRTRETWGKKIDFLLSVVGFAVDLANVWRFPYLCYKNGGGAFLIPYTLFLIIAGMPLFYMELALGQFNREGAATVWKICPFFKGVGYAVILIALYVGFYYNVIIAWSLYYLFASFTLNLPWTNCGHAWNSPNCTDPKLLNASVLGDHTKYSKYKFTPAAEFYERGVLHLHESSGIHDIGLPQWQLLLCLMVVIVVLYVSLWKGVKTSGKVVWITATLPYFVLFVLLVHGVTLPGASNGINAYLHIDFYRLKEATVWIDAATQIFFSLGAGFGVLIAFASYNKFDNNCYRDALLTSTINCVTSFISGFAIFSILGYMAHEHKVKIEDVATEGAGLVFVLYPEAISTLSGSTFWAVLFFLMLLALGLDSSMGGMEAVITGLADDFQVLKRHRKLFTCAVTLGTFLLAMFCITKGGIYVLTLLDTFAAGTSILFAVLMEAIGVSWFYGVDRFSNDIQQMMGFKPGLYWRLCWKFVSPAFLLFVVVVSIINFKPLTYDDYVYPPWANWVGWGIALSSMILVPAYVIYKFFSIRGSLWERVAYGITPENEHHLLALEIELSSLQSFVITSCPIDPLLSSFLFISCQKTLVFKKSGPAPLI

[3] = target: Monoamine transporters; serotonin & dopamine (Rattus norvegicus) (UniProt P31652+P23977); assay: Selectivity ratio is IC50 value of 5-HTT to that of DAT; assay type: protein assay
Sequence of Monoamine transporters; serotonin & dopamine (Rattus norvegicus) (P23977 whole entry, looked up): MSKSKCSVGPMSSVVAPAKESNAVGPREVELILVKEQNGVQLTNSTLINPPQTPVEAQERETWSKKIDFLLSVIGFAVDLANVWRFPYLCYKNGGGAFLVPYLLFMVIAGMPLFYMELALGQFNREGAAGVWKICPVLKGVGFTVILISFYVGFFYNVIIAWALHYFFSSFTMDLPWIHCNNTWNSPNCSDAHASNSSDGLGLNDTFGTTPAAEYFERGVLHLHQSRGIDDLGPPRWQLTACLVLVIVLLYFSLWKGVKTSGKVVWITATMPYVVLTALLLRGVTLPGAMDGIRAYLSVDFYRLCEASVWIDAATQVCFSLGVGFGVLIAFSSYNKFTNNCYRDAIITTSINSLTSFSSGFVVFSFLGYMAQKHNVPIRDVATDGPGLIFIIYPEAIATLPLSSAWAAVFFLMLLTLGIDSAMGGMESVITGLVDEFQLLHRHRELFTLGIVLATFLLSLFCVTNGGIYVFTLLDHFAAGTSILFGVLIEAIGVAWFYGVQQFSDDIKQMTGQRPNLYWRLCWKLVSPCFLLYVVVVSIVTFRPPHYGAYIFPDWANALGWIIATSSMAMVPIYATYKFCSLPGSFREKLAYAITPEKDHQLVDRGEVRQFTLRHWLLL
Sequence of Monoamine transporters; serotonin & dopamine (Rattus norvegicus) (P31652 whole entry, looked up): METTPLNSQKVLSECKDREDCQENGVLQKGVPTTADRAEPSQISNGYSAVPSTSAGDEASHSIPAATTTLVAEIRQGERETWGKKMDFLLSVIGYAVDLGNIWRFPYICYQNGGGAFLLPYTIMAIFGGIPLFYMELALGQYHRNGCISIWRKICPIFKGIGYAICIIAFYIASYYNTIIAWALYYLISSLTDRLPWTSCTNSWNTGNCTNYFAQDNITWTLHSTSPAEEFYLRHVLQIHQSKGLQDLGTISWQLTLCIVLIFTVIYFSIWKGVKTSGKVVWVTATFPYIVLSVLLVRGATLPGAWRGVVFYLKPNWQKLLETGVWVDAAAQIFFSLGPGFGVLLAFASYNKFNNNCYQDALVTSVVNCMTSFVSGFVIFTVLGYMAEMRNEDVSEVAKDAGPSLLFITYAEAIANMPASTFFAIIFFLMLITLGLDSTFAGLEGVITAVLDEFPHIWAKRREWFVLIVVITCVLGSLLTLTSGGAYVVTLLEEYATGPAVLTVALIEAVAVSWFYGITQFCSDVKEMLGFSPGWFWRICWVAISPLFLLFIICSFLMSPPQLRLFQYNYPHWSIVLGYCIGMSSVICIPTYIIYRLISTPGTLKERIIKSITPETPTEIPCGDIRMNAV

[4] = target: Monoamine transporters; Norepininephrine & dopamine (Rattus norvegicus) (UniProt P23977+Q9WTR4); assay: Selectivity ratio is IC50 value of NET to that of DAT; assay type: protein assay
[5] = target: Sodium-dependent serotonin transporter (Rattus norvegicus, UniProt P31652); assay: In vitro inhibitory activity against radioligand [3H]paroxetine binding to serotonin transporter (5-HTT) in rat midbrain tissue; assay type: tissue-based
Sequence of Sodium-dependent serotonin transporter (P31652 whole entry): as the sequence (P31652 whole entry, looked up) above

Sequence of Sodium-dependent dopamine transporter (P23977 whole entry): as the sequence (P23977 whole entry, looked up) above

| Compound | IC50 [1] | IC50 [2] | Ratio [3] | Ratio [4] | IC50 [5] |
| --- | --- | --- | --- | --- | --- |
| CCc1ccc(C2CC3CC[C@@H](N3)C2C(=O)OC)cc1I (some centres undefined) | 329 nM | 148 nM | 87 | 40 | – |
| COC(=O)C1C(c2cccc(I)c2)CC2CC[C@H]1N2C (some centres undefined) | 26 nM | 1590 nM | 1.5 | 61 | 38.8 nM |
| CCc1ccc(C2CC3CC[C@@H](N3)C2C(=O)OC)cc1 (some centres undefined) | – | – | 0.2 | 2.5 | – |
| CCc1ccc(C2CC3CC[C@H](C2C(=O)OC)N3C)cc1 (some centres undefined) | – | 39 nM | 0.52 | 71 | – |
| COC(=O)C1C(c2ccc(Cl)cc2)CC2CC[C@H]1N2 (some centres undefined) | 0.62 nM | 4.13 nM | 9 | 7 | 5.45 nM |
